Read-outs that look alike come from different tables or passages of the source.
Legend:
[1] = target: T1, Recombinant human PKC-theta (His-tagged 362-706) (Homo sapiens, UniProt Q04759); assay: PKC-theta inhibition assay (HTRF KinEASE kit); assay type: biochemical; conditions: ATP 6.5 μM, STK substrate 525 nM
T1 construct: Recombinant human PKC-theta (His-tagged 362-706); His
Procedure: PKC-theta and PKC-delta biochemical activities were measured using the PKC-theta HTRF KinEASEkit kit, according to manufacturer's instructions (Cisbio, catalogue number 61ST1PEJ). Briefly, the kinase buffer component of the kit was supplemented with 10 mM MgCl2, 1 mM DTT and 0.1% Tween 20. […] The streptavidin_XL665 and STK antibody-cryptate detection reagents were mixed according to the manufacturer's instructions. Test compounds were diluted in DMSO in a series of 10 semi-log step doses; 10 nL of each compound dose were dispensed in 384 well plates. […] The reaction was started by addition of the substrate and ATP and incubated at 25° C. for 30 minutes or 20 minutes for the PKC-theta and PKC-delta assays, respectively. The detection reagents were added, and the plate was incubated in the dark for 2 hours. […] The ratio of acceptor and donor emission signals was calculated for each well. Percent inhibition values were calculated from the HTRF ratios at different doses and fitted to a 4-parameter logistic curve to determine IC50 values (see Table 2).

[2] = system: IL-2 secretion by human effector memory T cells (TEM); assay: Effector memory T cells IL-2 release assay (CD3/CD28 stimulation, HTRF IL-2 detection); assay type: cell-based; conditions: 24 h; for IC50: Homo sapiens, T-cell
Procedure: Test compound-mediated inhibition of NFκB signalling in T cells was assessed by quantification of the IL-2 secretion by human effector memory T cells (TEM) upon treatment and stimulation. Human TEM cells were isolated from buffy coats of healthy donors obtained from the French blood bank.
Finally, 10 doses of test compound, originally prepared in DMSO by serial semi-log step dilution, were also added to cells in triplicate wells. Final DMSO concentration in wells was 0.1% in a total volume of 100 μL complete medium. Plates were incubated for 24 h at 37° C. in 5% CO2 atmosphere. After incubation, cell suspensions were centrifuged at 400×g and culture supernatants were recovered and stored at −80° C. […] IL-2 levels were determined in cell supernatants using an HTRF human IL-2 detection kit (Cisbio, cat #62HIL02PEH).

[3] = target: T2, Recombinant human PKC-delta (His-tagged 345-676) (Homo sapiens, UniProt Q05655); assay: PKC-delta inhibition assay (HTRF KinEASE kit); assay type: biochemical; conditions: ratio, PKC-theta vs PKC-delta HTRF; for PKC-theta/PKC-delta selectivity (binned): binned A to G
T2 construct: PKC-delta (His-tagged 345-676); His
T2 sequence (Q05655 345-676): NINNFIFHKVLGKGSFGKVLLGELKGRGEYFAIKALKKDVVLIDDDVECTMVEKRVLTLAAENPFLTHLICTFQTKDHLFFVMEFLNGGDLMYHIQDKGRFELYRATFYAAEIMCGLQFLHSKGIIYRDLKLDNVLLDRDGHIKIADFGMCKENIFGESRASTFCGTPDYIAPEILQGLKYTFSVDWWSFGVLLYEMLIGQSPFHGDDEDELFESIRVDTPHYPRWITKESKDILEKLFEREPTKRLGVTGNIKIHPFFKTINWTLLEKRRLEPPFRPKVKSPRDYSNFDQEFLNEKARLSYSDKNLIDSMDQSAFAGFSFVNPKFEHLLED

[4] = binned A to H, read-out: PKC-theta HTRF pIC50 (binned) (converted)
[5] = read-out: PKC-theta HTRF pIC50 (converted)
[6] = binned A to G, read-out: PKC-theta IL2 pIC50 (binned) (converted)
[7] = read-out: PKC-theta IL2 pIC50 (converted)

T1 sequence (Q04759 362-706): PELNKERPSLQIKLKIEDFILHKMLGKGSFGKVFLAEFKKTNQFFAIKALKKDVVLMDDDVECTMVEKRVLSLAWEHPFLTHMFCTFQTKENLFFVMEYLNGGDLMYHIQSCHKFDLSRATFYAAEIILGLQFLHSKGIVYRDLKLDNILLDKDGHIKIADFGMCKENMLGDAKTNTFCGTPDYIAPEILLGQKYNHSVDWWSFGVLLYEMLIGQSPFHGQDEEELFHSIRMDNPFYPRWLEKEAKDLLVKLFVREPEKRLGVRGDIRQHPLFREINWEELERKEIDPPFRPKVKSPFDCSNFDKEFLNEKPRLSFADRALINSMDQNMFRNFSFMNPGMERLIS

Structure (SMILES) | IC50 [1, 4] [µM] | IC50 [1, 5] [µM] | IC50 [2, 6] [µM] | IC50 [2, 7] [µM] | PKC-theta/PKC-delta selectivity [3] | PKC-theta/PKC-delta selectivity (binned) [3] | PKC-theta IL2 pIC50 (binned) ([2]; binned A to G) | PKC-theta IL2 pIC50 [2]
C[C@@]1(O)C(=O)Nc2nccc(-c3cc(C(F)(F)F)cc(N4CCNC(C(F)F)C4)n3)c21 (single isomer, unassigned) [Example 123] | 0.01 to 0.0316 | 0.02 | > 1 | 1.58 | 25 | C (a ratio of between 20 and 30) | – | –
CC[C@H]1CN(c2ccc(Cl)c(-c3ccnc4c3[C@](C)(O)C(=O)N4)n2)CCN1 (single isomer, unassigned) [Example 128] | 0.01 to 0.0316 | 0.0251 | 0.1 to 0.316 | 0.316 | 5 | F (a ratio of between 1 and 5) | – | –
CC[C@@H]1CNCCN1c1cc(C(F)(F)F)cc(-c2ccnc3c2[C@](C)(O)C(=O)N3)n1 (single isomer, unassigned) [Example 129] | 0.000316 to 0.001 | 0.000501 | 0.00316 to 0.01 | 0.00398 | 3 | F (a ratio of between 1 and 5) | – | –
CC1(C)CN(c2cc(Cl)cc(-c3ccnc4c3[C@](C)(O)C(=O)N4)n2)CCN1 (single isomer, unassigned) [Example 133] | 0.001 to 0.00316 | 0.00251 | 0.0316 to 0.1 | 0.0501 | 10 | D (a ratio of between 10 and 20) | – | –
CC1(C)CN(c2cc(C(F)(F)F)cc(-c3ccnc4c3[C@](C)(O)C(=O)N4)n2)CCN1 (single isomer, unassigned) [Example 134] | 0.00316 to 0.01 | 0.00794 | 0.1 to 0.316 | 0.1 | 10 | D (a ratio of between 10 and 20) | – | –
C[C@@]1(O)C(=O)Nc2nccc(-c3cc(C(F)(F)F)cc(N4C[C@H]5CC[C@@H](C4)N5)n3)c21 (single isomer, unassigned) [Example 136] | 0.01 to 0.0316 | 0.0251 | 0.316 to 1 | 0.501 | 11 | D (a ratio of between 10 and 20) | – | –
C[C@@]1(O)C(=O)Nc2nccc(-c3cc(C(F)(F)F)cc(N4CC5CCC4CN5)n3)c21 (single isomer, unassigned) [Example 138] | 0.01 to 0.0316 | 0.0158 | 0.316 to 1 | 0.631 | 16 | D (a ratio of between 10 and 20) | – | –
CC[C@@H]1CNCCN1c1cc(Cl)cc(-c2ccnc3c2[C@](C)(O)C(=O)N3)n1 (single isomer, unassigned) [Example 139] | 0.000316 to 0.001 | 0.000794 | 0.001 to 0.00316 | 0.002 | 1 | F (a ratio of between 1 and 5) | – | –
C[C@@]1(O)C(=O)Nc2nccc(-c3cc(C(F)(F)F)cc(N4CC5CC(C4)N5)n3)c21 (single isomer, unassigned) [Example 149] | 0.01 to 0.0316 | 0.0251 | 0.316 to 1 | 0.398 | 15 | D (a ratio of between 10 and 20) | – | –
CC[C@H]1CN(c2cc(Cl)cc(-c3ccnc4c3[C@@](C)(OC)C(=O)N4)n2)CCN1 (single isomer, unassigned) [Example 151] | 0.01 to 0.0316 | 0.0126 | – | 0.126 | 15 | D (a ratio of between 10 and 20) | E (a measured pIC50 of between 6.5 and 7.0) | –
CC[C@H]1CN(c2cc(Cl)cc(-c3ccnc4c3[C@@](C)(OC)C(=O)N4)n2)CCN1 (single isomer, unassigned) [Example 152] | 0.00316 to 0.01 | 0.00631 | – | – | 11 | D (a ratio of between 10 and 20) | D (a measured pIC50 of between 7.0 and 7.5) | 7.1
CC[C@]1(C)C(=O)Nc2nccc(-c3cc(C(F)(F)F)cc(N4CCN[C@@H](C)C4)n3)c21 (single isomer, unassigned) [Example 153] | 0.001 to 0.00316 | 0.00316 | 0.01 to 0.0316 | 0.0316 | 13 | D (a ratio of between 10 and 20) | – | –
CC[C@@]1(C)C(=O)Nc2nccc(-c3cc(C(F)(F)F)cc(N4CCN[C@@H](C)C4)n3)c21 (single isomer, unassigned) [Example 154] | 0.00316 to 0.01 | 0.00794 | 0.1 to 0.316 | 0.126 | 19 | D (a ratio of between 10 and 20) | – | –
CO[C@]1(C)C(=O)Nc2nccc(-c3cc(C(F)(F)F)cc(N4CCNC[C@H]4C)n3)c21 (single isomer, unassigned) [Example 158] | 0.00316 to 0.01 | 0.00631 | 0.1 to 0.316 | 0.2 | 10 | E (a ratio of between 5 and 10) | – | –
CC[C@@]1(O)C(=O)Nc2nccc(-c3cc(Cl)cc(N4CCN[C@@H](C)C4)n3)c21 (single isomer, unassigned) [Example 162] | 0.1 to 0.316 | 0.316 | 0.316 to 1 | 0.794 | 33 | B (a ratio of between 30 and 50) | – | –
CC[C@]1(O)C(=O)Nc2nccc(-c3cc(Cl)cc(N4CCN[C@@H](C)C4)n3)c21 (single isomer, unassigned) [Example 163] | 0.00316 to 0.01 | 0.00398 | 0.01 to 0.0316 | 0.0316 | 10 | D (a ratio of between 10 and 20) | – | –
CC[C@@]1(C)C(=O)Nc2nccc(-c3cc(Cl)cc(N4CCNC[C@H]4C)n3)c21 (single isomer, unassigned) [Example 164] | 0.001 to 0.00316 | 0.002 | 0.01 to 0.0316 | 0.0126 | 5 | F (a ratio of between 1 and 5) | – | –
CC[C@]1(C)C(=O)Nc2nccc(-c3cc(Cl)cc(N4CCNC[C@H]4C)n3)c21 (single isomer, unassigned) [Example 165] | 0.00316 to 0.01 | 0.00631 | 0.0316 to 0.1 | 0.0631 | 12 | D (a ratio of between 10 and 20) | – | –
CC[C@@]1(O)C(=O)Nc2nccc(-c3cc(C(F)(F)F)cc(N4CCNC[C@H]4C)n3)c21 (single isomer, unassigned) [Example 166] | 0.001 to 0.00316 | 0.00316 | 0.01 to 0.0316 | 0.0316 | 6 | E (a ratio of between 5 and 10) | – | –
CC[C@]1(O)C(=O)Nc2nccc(-c3cc(C(F)(F)F)cc(N4CCNC[C@H]4C)n3)c21 (single isomer, unassigned) [Example 167] | 0.1 to 0.316 | 0.316 | > 1 | 2.51 | 33 | B (a ratio of between 30 and 50) | – | –
CC[C@]1(C)C(=O)Nc2nccc(-c3cc(Cl)cc(N4CCN[C@@H](C)C4)n3)c21 (single isomer, unassigned) [Example 171] | 0.001 to 0.00316 | 0.00251 | 0.0316 to 0.1 | 0.0398 | 9 | E (a ratio of between 5 and 10) | – | –
CO[C@]1(C)C(=O)Nc2nccc(-c3cc(Cl)cc(N4CCNC[C@H]4C)n3)c21 (single isomer, unassigned) [Example 172] | 0.00316 to 0.01 | 0.01 | 0.1 to 0.316 | 0.1 | 13 | D (a ratio of between 10 and 20) | – | –
CO[C@]1(C)C(=O)Nc2nccc(-c3cc(C(F)(F)F)cc(N4CCNC[C@H]4C)n3)c21 (single isomer, unassigned) [Example 176] | 0.01 to 0.0316 | 0.0126 | – | – | 20 | C (a ratio of between 20 and 30) | E (a measured pIC50 of between 6.5 and 7.0) | 6.9

From patent US20260035367A1 (Celgene Corporation, priority 2021, published 2026)
